In patent publication US20260007758A1, “SO[…]-2 RECEPTOR (SST2R) NON-PEPTIDE DRUG CONJUGATES AND USES THEREOF” (Crinetics Pharmaceuticals, Inc., priority 2024, published 2026):
pEC50: −log10 of the molar value. *1 amine or outer side, *2 acyl side, *3 side chain or, on linkers, in order; H or OH if unused. Where a SMILES comes first, the peptide text is derived from it. [ ]: non-standard residue; d: D form. The star is where a group is joined. X1 = Cc1cc(F)cc(-c2cnc(*)c(-c3nc4ccc(Cl)cc4[nH]3)c2N2CCC(N)CC2)c1; Dolaproine = CO[C@@H]([C@@H]1CCCN1)[C@@H](C)C(=O)O; Dil = CC[C@H](C)[C@H](NC)[C@@H](CC(=O)O)OC; PABC = O=C(OCc1ccc(N[*:1])cc1)[*:2]; X2 = C[C@@H](N*)[C@@H](O)c1ccccc1; Cit = NC(=O)NCCC[C@H](N)C(=O)O; PEG4 = NCCOCCOCCOCCOCCC(=O)O; NMeV = CN[C@H](C(=O)O)C(C)C; βAla = NCCC(=O)O

How the values were obtained:
Type in all cases: cell-based
[1] = target: T1, human somatostatin receptor subtype 2 (Homo sapiens, UniProt P30874); assay: Functional assay for SSTR2 agonists (HTRF cAMP); conditions: CHO-K1 cells stably expressing human SST2; NKH477-stimulated cAMP; 20 min at 37 C; read-out: hSST2 cAMP Avg EC50
T1 construct: expressed in transfected cells
T1 sequence (P30874 whole entry): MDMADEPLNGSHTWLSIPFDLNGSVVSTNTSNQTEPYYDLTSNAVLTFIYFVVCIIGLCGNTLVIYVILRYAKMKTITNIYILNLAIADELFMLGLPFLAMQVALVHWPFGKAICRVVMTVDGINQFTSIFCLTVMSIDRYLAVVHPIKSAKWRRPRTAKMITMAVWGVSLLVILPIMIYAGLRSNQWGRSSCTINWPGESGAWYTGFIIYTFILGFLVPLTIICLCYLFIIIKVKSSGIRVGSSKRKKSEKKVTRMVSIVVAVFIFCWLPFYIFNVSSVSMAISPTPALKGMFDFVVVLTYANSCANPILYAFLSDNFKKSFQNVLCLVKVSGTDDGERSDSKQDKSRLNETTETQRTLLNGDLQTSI
Summary of the method: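 CHO-K1 cells stably expressing human SSTR2 treated with compound (typically 0-10,000 nM final) for 20 min at 37 °C. Lysate cAMP measured by HTRF (665/620 nm ratio), converted via standard curve; EC50 from cAMP vs concentration.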

SST2 = target: T2, SST2 (Homo sapiens, UniProt P30874); assay: PathHunter CHO-K1 SST2 Internalization Assay; conditions: PathHunter CHO-K1 SST2 cells; 90 min at 37 C; luminescence; read-out: Internalization EC50
T2 construct: host or cells: PathHunter CHO-K1 SST2 cells
T2 sequence (P30874 whole entry): as above
Summary of the method: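 CHO-K1 cells expressing human SST2, 2500 cells/well, grown 48 h, then exposed 90 min at 37 C to 11-point 1:3 NDC dilutions (final top 10 uM). Beta-Glo luminescence after 60 min at room temperature; four-parameter IC50, duplicate mean, background-corrected.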

[2] = tested on: NCI-H524 human small cell lung cancer cells; assay: H524 assay: inhibition of cell proliferation (CellTiter Glo); conditions: 2 h treatment, washout, additional 70 h incubation
Summary of the method: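 NCI-H524 cells were exposed for 2 h to NDC in an 11-point two-fold series starting at 1 uM. The drug was then washed out and cells grew a further 70 h. CellTiter Glo luminescence gave % inhibition versus untreated control, and IC50 came from a four-parameter nonlinear regression.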

SMILES	pEC50 [1]	pEC50 (SST2)	pEC50 [2]
CC[C@H](C)[C@@H]([C@@H](CC(=O)N1CCC[C@H]1[C@H](OC)[C@@H](C)C(=O)N[C@H](C)[C@@H](O)c1ccccc1)OC)N(C)C(=O)[C@@H](NC(=O)[C@H](C(C)C)N(C)C(=O)OCc1ccc(NC(=O)[C@H](CCCNC(N)=O)NC(=O)[C@@H](NC(=O)[C@H](CCC(=O)O)NC(=O)CCOCCC(=O)NCCNc2ncc(-c3cc(C)cc(F)c3)c(N3CCC(N)CC3)c2-c2nc3cc(F)cc(OC)c3[nH]2)C(C)C)cc1C(=O)NCCN)C(C)C [Compound 79]	9.92	8.29	8.11
CC[C@H](C)[C@@H]([C@@H](CC(=O)N1CCC[C@H]1[C@H](OC)[C@@H](C)C(=O)N[C@H](C)[C@@H](O)c1ccccc1)OC)N(C)C(=O)[C@@H](NC(=O)[C@H](C(C)C)N(C)C(=O)OCc1ccc(NC(=O)[C@H](CCCNC(N)=O)NC(=O)[C@@H](NC(=O)CCCC(=O)N(C)CC(=O)NCCNc2ncc(-c3cc(C)cc(F)c3)c(N3CCC(N)CC3)c2-c2nc3ccc(Cl)cc3[nH]2)C(C)C)c(O[C@@H]2O[C@H](C(=O)O)[C@@H](O)[C@H](O)[C@H]2O)c1)C(C)C [Compound 56]	9.09	7.17	7.59
CC[C@H](C)[C@@H]([C@@H](CC(=O)N1CCC[C@H]1[C@H](OC)[C@@H](C)C(=O)N[C@H](C)[C@@H](O)c1ccccc1)OC)N(C)C(=O)[C@@H](NC(=O)[C@H](C(C)C)N(C)C(=O)OCc1ccc(NC(=O)[C@H](CCCNC(N)=O)NC(=O)[C@@H](NC(=O)CCOCCOCCC(=O)NCCNc2ncc(-c3cc(C)cc(F)c3)c(N3CCC(N)CC3)c2-c2nc3ccc(Cl)cc3[nH]2)C(C)C)cc1C(=O)NCCNC(=O)CCCCCCCCCCC(=O)O)C(C)C [Compound 83]	9.28	8.15	6.51
CC[C@H](C)[C@@H]([C@@H](CC(=O)N1CCC[C@H]1[C@H](OC)[C@@H](C)C(=O)N[C@H](C)[C@@H](O)c1ccccc1)OC)N(C)C(=O)[C@@H](NC(=O)[C@H](C(C)C)N(C)C(=O)OCc1ccc(NC(=O)[C@H](CCCNC(N)=O)NC(=O)[C@@H](NC(=O)CCOCCC(=O)NCCNc2ncc(-c3cc(C)cc(F)c3)c(N3CCC(N)CC3)c2-c2nc3ccc(Cl)cc3[nH]2)C(C)C)c(OCCO)c1)C(C)C [Compound 12]	9.62	8.16	8.41
CC[C@H](C)[C@@H]([C@@H](CC(=O)N1CCC[C@H]1[C@H](OC)[C@@H](C)C(=O)N[C@H](C)[C@@H](O)c1ccccc1)OC)N(C)C(=O)[C@@H](NC(=O)[C@H](C(C)C)N(C)C(=O)OCc1ccc(NC(=O)[C@H](CCCNC(N)=O)NC(=O)[C@@H](NC(=O)CCOCCOCCOCCOCCNC(=O)CCNc2ncc(-c3cc(C)cc(F)c3)c(N3CCC(N)CC3)c2-c2nc3ccc(Cl)cc3[nH]2)C(C)C)cc1)C(C)C [Compound 196] ({X1-βAla-PEG4}-V[Cit][PABC][NMeV]V[Dil][Dolaproine]-X2)	9.54	8.07	7.55
CC[C@H](C)[C@@H]([C@@H](CC(=O)N1CCC[C@H]1[C@H](OC)[C@@H](C)C(=O)N[C@H](C)[C@@H](O)c1ccccc1)OC)N(C)C(=O)[C@@H](NC(=O)[C@H](C(C)C)N(C)C(=O)OCc1ccc(NC(=O)[C@H](CCCNC(N)=O)NC(=O)[C@@H](NC(=O)CCOCCOCCOCCOCCC(=O)NCCNc2ncc(-c3cc(C)cc(F)c3)c(N3CCC(N)CC3)c2-c2nc3ccc(Cl)cc3[nH]2)C(C)C)cc1C(=O)N1CC(C(=O)O)C1)C(C)C [Compound 67]	10.07	8.26	7.07
CC[C@H](C)[C@@H]([C@@H](CC(=O)N1CCC[C@H]1[C@H](OC)[C@@H](C)C(=O)N[C@H](C)[C@@H](O)c1ccccc1)OC)N(C)C(=O)[C@@H](NC(=O)[C@H](C(C)C)N(C)C(=O)OCc1ccc(NC(=O)[C@H](C)NC(=O)[C@@H](NC(=O)CCOCCC(=O)NCCNc2ncc(-c3cc(C)cc(F)c3)c(N3CCC(N)CC3)c2-c2nc3cc(F)c(F)cc3[nH]2)C(C)C)c(O[C@@H]2O[C@H](C(=O)O)[C@@H](O)[C@H](O)[C@H]2O)c1)C(C)C [Compound 108]	9.74	8.09	7.28
CC[C@H](C)[C@@H]([C@@H](CC(=O)N1CCC[C@H]1[C@H](OC)[C@@H](C)C(=O)N[C@H](C)[C@@H](O)c1ccccc1)OC)N(C)C(=O)[C@@H](NC(=O)[C@H](C(C)C)N(C)C(=O)OCc1ccc(NC(=O)[C@H](CCCNC(N)=O)NC(=O)[C@@H](NC(=O)CCOCCC(=O)NCCCNc2ncc(-c3cc(C)cc(F)c3)c(N3CCC(N)CC3)c2-c2nc3ccc(Cl)cc3[nH]2)C(C)C)c(O[C@@H]2O[C@H](C(=O)O)[C@@H](O)[C@H](O)[C@H]2O)c1)C(C)C [Compound 195]	9.46	8.39	8.07
CC[C@H](C)[C@@H]([C@@H](CC(=O)N1CCC[C@H]1[C@H](OC)[C@@H](C)C(=O)N[C@H](C)[C@@H](O)c1ccccc1)OC)N(C)C(=O)[C@@H](NC(=O)[C@H](C(C)C)N(C)C(=O)OCc1ccc(NC(=O)[C@H](CCCNC(N)=O)NC(=O)[C@@H](NC(=O)CCOCCC(=O)NCCNc2ncc(-c3cc(C)cc(F)c3)c(N3CCC(N)CC3)c2-c2nc3ccc(Cl)cc3[nH]2)C(C)C)c(O[C@@H]2O[C@H](C(=O)N(C)CCOCCC(=O)O)[C@@H](O)[C@H](O)[C@H]2O)c1)C(C)C [Compound 231]	9.48	7.92	7.31
CC[C@H](C)[C@@H]([C@@H](CC(=O)N1CCC[C@H]1[C@H](OC)[C@@H](C)C(=O)N[C@H](C)[C@@H](O)c1ccccc1)OC)N(C)C(=O)[C@@H](NC(=O)[C@H](C(C)C)N(C)C(=O)OCc1ccc(NC(=O)[C@H](CCCNC(N)=O)NC(=O)[C@@H](NC(=O)CCOCCC(=O)NCCNc2ncc(-c3cc(C)cc(F)c3)c(N3CCC(N)CC3)c2-c2cc3ccc(Cl)cc3[nH]2)C(C)C)c(O[C@@H]2C[C@H](C(=O)NCCN)[C@@H](O)[C@H](O)[C@H]2O)c1)C(C)C [Compound 43]	9.62	8.18	8.74
CC[C@H](C)[C@@H]([C@@H](CC(=O)N1CCC[C@H]1[C@H](OC)[C@@H](C)C(=O)N[C@H](C)[C@@H](O)c1ccccc1)OC)N(C)C(=O)[C@@H](NC(=O)[C@H](C(C)C)N(C)C(=O)OCc1ccc(NC(=O)[C@@H](CCCNC(N)=O)NC(=O)[C@@H](NC(=O)CCOCCC(=O)NCCNc2ncc(-c3cc(C)cc(F)c3)c(N3CCC(N)CC3)c2-c2nc3ccc(Cl)cc3[nH]2)C(C)C)c(O[C@H]2[C@H](O)[C@@H](O)[C@H](O)[C@@H](C(=O)O)[C@H]2O)c1)C(C)C [Compound 241]	9.72	8.34	5.54
CC[C@H](C)[C@@H]([C@@H](CC(=O)N1CCC[C@H]1[C@H](OC)[C@@H](C)C(=O)N[C@H](C)[C@@H](O)c1ccccc1)OC)N(C)C(=O)[C@@H](NC(=O)[C@H](C(C)C)N(C)C(=O)OCc1ccc(NC(=O)[C@H](CCCNC(N)=O)NC(=O)[C@@H](NC(=O)CCOCCC(=O)NCCNc2ncc(-c3cc(C)cc(F)c3)c(N3CCC(N)CC3)c2-c2nc3ccc(Cl)cc3[nH]2)C(C)C)c(O[C@@H]2O[C@H](C(=O)NCCS(=O)(=O)O)[C@@H](O)[C@H](O)[C@H]2O)c1)C(C)C [Compound 208]	10.21	8.51	8.05
CC[C@H](C)[C@@H]([C@@H](CC(=O)N1CCC[C@H]1[C@H](OC)[C@@H](C)C(=O)N[C@H](C)[C@@H](O)c1ccccc1)OC)N(C)C(=O)[C@@H](NC(=O)[C@H](C(C)C)N(C)C(=O)OCc1ccc(NC(=O)C(CCCNC(N)=O)NC(=O)[C@@H](NC(=O)c2cc(NC(=O)CCOCCC(=O)N(C)CC(=O)NCCNc3ncc(-c4cc(C)cc(F)c4)c(N4CCC(N)CC4)c3-c3nc4ccc(Cl)cc4[nH]3)cc(C(=O)NCC(=O)NCCN)c2)C(C)C)cc1)C(C)C (stereo partly drawn) [Compound 175]	9.39	7.74	7.25
CC[C@H](C)[C@@H]([C@@H](CC(=O)N1CCC[C@H]1[C@H](OC)[C@@H](C)C(=O)N[C@H](C)[C@@H](O)c1ccccc1)OC)N(C)C(=O)[C@@H](NC(=O)[C@H](C(C)C)N(C)C(=O)OCc1ccc(NC(=O)[C@H](CCCNC(N)=O)NC(=O)[C@@H](NC(=O)CCOCCC(=O)NCCNc2ncc(-c3cc(C)cc(F)c3)c(N3CCC(N)CC3)c2-c2nc3cc(Cl)ccc3[nH]2)C(C)C)c(O[C@@H]2O[C@H](C(=O)NCC(=O)O)[C@@H](O)[C@H](O)[C@H]2O)c1)C(C)C [Compound 44]	10.07	8.35	8.32
CC[C@H](C)[C@@H]([C@@H](CC(=O)N1CCC[C@H]1[C@H](OC)[C@@H](C)C(=O)N[C@H](C)[C@@H](O)c1ccccc1)OC)N(C)C(=O)[C@@H](NC(=O)[C@H](C(C)C)N(C)C(=O)OCc1ccc(NC(=O)[C@H](CCCNC(N)=O)NC(=O)[C@@H](NC(=O)[C@H](CCC(=O)O)NC(=O)CCOCCC(=O)NCCNc2ncc(-c3cc(C)cc(F)c3)c(N3CCC(N)CC3)c2-c2nc3ccc(Cl)cc3[nH]2)C(C)C)cc1C(F)(F)F)C(C)C [Compound 2]	9.24	8.07	5.60
CC[C@H](C)[C@@H]([C@@H](CC(=O)N1CCC[C@H]1[C@H](OC)[C@@H](C)C(=O)N[C@H](C)[C@@H](O)c1ccccc1)OC)N(C)C(=O)[C@@H](NC(=O)[C@H](C(C)C)N(C)C(=O)OCc1ccc(NC(=O)[C@H](CCCNC(N)=O)NC(=O)[C@@H](NC(=O)[C@H](CCC(=O)O)NC(=O)CCOCCC(=O)NCCNc2ncc(-c3cc(C)cc(F)c3)c(N3CCC(N)CC3)c2-c2nc3ccc(Cl)cc3[nH]2)C(C)C)cc1C(=O)NCCNC)C(C)C [Compound 57]	9.51	8.18	6.00
